Measured values published in patent US20100130444A1, “COMPLEXES OF PROSTAGLANDIN DERIVATIVES AND MONOSUBSTITUTED, CHARGED BETA-CYCLODEXTRINS” (priority 2007, published 2010).
In brackets after ≈: the same amount, converted by molar mass. Each block holds one compound with its values, some of them ahead of it.

Legend:
Type in all cases: physicochemical
[1] = Solubility of prostaglandin derivatives in 50 mM cyclodextrin derivative or water (Example 2)
Source text: Solubility of Latanoprost, Bimatoprost And Travoprost in 50 Mm Mono-6-desoxy-6-diaminopropyl-β-cyclodextrin, Mono-6-desoxy-6-aminopropanol-β-cyclodextrin or Water

[2] = Solubilization of latanoprost by a library of cyclodextrin derivatives (Example 1); conditions: ultra-pure water, room temperature
Procedure: A library of unsubstituted and monosubstituted cyclodextrins was screened to identify those cyclodextrin derivatives that have the highest capacity for solubilization of latanoprost. Complexation was carried out in ultra-pure water at a molar ratio of cyclodextrin derivative to latanoprost of 5:1, corresponding to concentrations of 115.58 mM and 23.12 mM for cyclodextrin derivative and latanoprost, respectively. Because of the known sensitivity of latanoprost to light, high temperature and oxidation, experiments were conducted in the dark and under a nitrogen atmosphere at room temperature. […] Non-covalent complexes formed contained the cyclodextrin derivative and latanoprost at a molar ratio of 5:1.

[3] = 30-day stability of latanoprost complexed with mono-6-desoxy-6-diaminopropyl-β-cyclodextrin, HPLC-ELSD (Example 6, Table 4); conditions: for Relative area of Latanoprost (%) after 30 days: ELSD
Procedure: Latanoprost-mono-6-desoxy-6-diaminopropyl-β-cyclodextrin complex was prepared essentially as described under the previous example. Complex was dissolved in water to yield solutions (pH 6.7) containing 15 mg/ml and 7.5 mg/ml of latanoprost, respectively, or in a standard, isotonic phosphate buffer (pH 6.7) at 50 μg/ml. A control solution of 50 μg/ml latanoprost in phosphate buffer was also prepared. One-milliliter amounts of these solutions were transferred to pre-scored hermetically thermo-sealed ampoules, and the sealed ampoules were incubated at room temperature, at 37° C. or at 60° C., in the presence or absence of natural light, for a total of 30 days. Aliquots were removed periodically and were analyzed by HPLC using either a UV diode array detector (at 210 nm) or an evaporative light scattering detector (ELSD). […] Such instability had been observed previously. Morgan (2001) J. Glaucoma 10, 401-405; Yusuke Sakai (2005) Int. J. Pharmaceutics 305, 176-179. International patent publication WO 2004/024164.

[4] = Time to reach maximal solubility of latanoprost in cyclodextrin solution (Example 3); conditions: 115 mM mono-6-desoxy-6-diaminopropyl-β-cyclodextrin, room temperature, dark, stirred
Procedure: The minimal time period required for reaching maximal solubility of the guest molecule, i.e., latanoprost, in a solution containing 115 mM mono-6-desoxy-6-diaminopropyl-β-cyclodextrin was determined. Subsequent to addition of latanoprost, the resulting suspension was ultrasonicated for 5 min and then stirred magnetically at room temperature and in the dark for a period of 48 hours. Aliquots were removed at 0, 1, 3, 6, 12, 24 and 48 hours. Each aliquot was filtered through a 0.45 um PVDF (Millipore/Whatman) membrane, and the filtrate was diluted for quantitative analysis of latanoprost by HPLC. […] Subsequent experiments were conducted after 24 hours of equilibration.

[5] = 30-day stability of latanoprost complexed with mono-6-desoxy-6-aminopropanol-β-cyclodextrin, quantitative HPLC (Example 6, Table 5); conditions: for Degradation products of latanoprost at 30 days (% of sum of drug and deg. prod.): uncomplexed aqueous solution
Procedure: Analogous experiments were carried out to estimate the stability of latanoprost-mono-6-desoxy-6-aminopropanol-β-cyclodextrin complex.

[6] = 50 mM mono-6-desoxy-6-aminopropanol-β-cyclodextrin solution, aqueous with cosolvent or surfactant or cyclodextrin, read-out: Solubility In 50 mM Mono-6-desoxy-6-aminopropanol-β-cyclodextrin
[7] = 50 mM mono-6-desoxy-6-diaminopropyl-β-cyclodextrin solution, aqueous with cosolvent or surfactant or cyclodextrin, read-out: Solubility In 50 mM Mono-6-desoxy-6-diaminopropyl-β-cyclodextrin
[8] = water, read-out: Solubility In Water
[9] = dark, nitrogen, cyclodextrin derivative 115.58 mM : latanoprost 23.12 mM (5:1), 'No addition' = latanoprost alone (Exp. S0)

Mass Ratio Cyclodextrin:Latanoprost in Complex [2]: 65
Molar Ratio Cyclodextrin:Latanoprost in Complex [2]: 25
Maximal Solubility of Latanoprost [2, 9]: 2000 µg/mL
Compound: 3^1,6^1-anhydrocyclomaltoheptaose [Monoanhydro-β-cyclodextrin]

Mass Ratio Cyclodextrin:Latanoprost in Complex [2]: 59
Maximal Solubility of Latanoprost [2, 9]: 255 µg/mL
Compound: OC[C@H]1O[C@@H]2O[C@H]3[C@H](O)[C@@H](O)[C@@H](O[C@H]4[C@H](O)[C@@H](O)[C@@H](O[C@H]5[C@H](O)[C@@H](O)[C@@H](O[C@H]6[C@H](O)[C@@H](O)[C@@H](O[C@H]7[C@H](O)[C@@H](O)[C@@H](O[C@H]8[C@H](O)[C@@H](O)[C@@H](O[C@H]1[C@H](O)[C@H]2O)O[C@@H]8CO)O[C@@H]7CO)O[C@@H]6CO)O[C@@H]5CO)O[C@@H]4CO)O[C@@H]3CO [β-Cyclodextrin, β-cyclomaltoheptaose]

Relative area of Latanoprost (%) after 30 days ([3]; 25 °C, Dark): 85.9%
Relative area of Latanoprost (%) after 30 days ([3]; 25 °C, Light, intact latanoprost as % of sum of latanoprost and degradation product): 76.9%
Relative area of Latanoprost (%) after 30 days ([3]; 37 °C, Dark): 100%
Relative area of Latanoprost (%) after 30 days ([3]; 37 °C, Light): 99.8%
Relative area of Latanoprost (%) after 30 days ([3]; 60 °C, Dark): 98.5%
Relative area of Latanoprost (%) after 30 days ([3]; 60 °C, Light): 94.7%
solubility [1, 6]: 5720 ± 80 µg/mL (≈ 13.2 mM)
solubility [1, 7]: 5900 ± 60 µg/mL (≈ 13.6 mM)
solubility [1, 8]: 89 µg/mL (≈ 0.206 mM)
solubility ([2]; dark, nitrogen, cyclodextrin derivative 115.58 mM : latanoprost 23.12 mM (5:1), 'No addition' = latanoprost alone (Exp. S0), read-out: Maximal Solubility of Latanoprost): 45 µg/mL (≈ 0.104 mM)
time at which solubility equilibrium was reached [4]: about 24 hours
degradation at 25° C. (in words) ([5]; 25° C., 30 days): abundant degradation
Degradation products of latanoprost at 30 days (% of sum of drug and deg. prod.) ([5]; 25 °C, Dark): 93.4%
Degradation products of latanoprost at 30 days (% of sum of drug and deg. prod.) ([5]; 25 °C, Light): 77.9%
Degradation products of latanoprost at 30 days (% of sum of drug and deg. prod.) ([5]; 37 °C, Dark): 0%
Degradation products of latanoprost at 30 days (% of sum of drug and deg. prod.) ([5]; 37 °C, Light): 0%
Degradation products of latanoprost at 30 days (% of sum of drug and deg. prod.) ([5]; 60 °C, Dark): 0%
Degradation products of latanoprost at 30 days (% of sum of drug and deg. prod.) ([5]; 60 °C, Light): 0%
latanoprost in aqueous solution at 30 days ([5]; uncomplexed, 25 °C, Dark): 0.002 +/− 0.001 g/lt
latanoprost in aqueous solution at 30 days ([5]; uncomplexed, 25 °C, Light): 0.006 +/− 0.004 g/lt
latanoprost in aqueous solution at 30 days ([5]; uncomplexed, 37 °C, Dark): 0.051 +/− 0.001 g/lt
latanoprost in aqueous solution at 30 days ([5]; uncomplexed, 37 °C, Light): 0.061 +/− 0.003 g/lt
latanoprost in aqueous solution at 30 days ([5]; uncomplexed, 60 °C, Dark): 0.058 +/− 0.002 g/lt
latanoprost in aqueous solution at 30 days ([5]; uncomplexed, 60 °C, Light): 0.043 +/− 0.007 g/lt
latanoprost in aqueous solution at day 0 ([5]; uncomplexed, phosphate-citrate buffer pH 5.0): 0.063 +/− 0.003 g/lt
Compound: CC(C)OC(=O)CCC/C=C\C[C@@H]1C(CC[C@@H](O)CCc2ccccc2)[C@H](O)C[C@@H]1O (stereo partly drawn) [Latanoprost, 13,14-dihydro-17-phenyl-18,19,20-trinor-PGF2α-isopropylester]
stability over 30 days (in words) ([3]; room temperature, 37° C. or 60° C., light or dark, 30 days): exhibited instability, in particular at 25 °C

solubility [1, 6]: 4950 ± 20 µg/mL (≈ 9.89 mM)
solubility [1, 7]: 4940 ± 130 µg/mL (≈ 9.87 mM)
solubility [1, 8]: 32 µg/mL (≈ 0.0639 mM)
Compound: CC(C)OC(=O)CCC/C=C\C[C@@H]1[C@@H](/C=C/[C@@H](O)COc2cccc(C(F)(F)F)c2)[C@H](O)C[C@@H]1O [Travoprost, 16-(3-trifluoromethylphenoxy)-17,18,19,20-tetranor-PGF2α-isopropylester]

Continued, compound first:

Compound: CCNC(=O)CCC/C=C\C[C@@H]1[C@@H](/C=C/[C@@H](O)CCc2ccccc2)[C@H](O)C[C@@H]1O [Bimatoprost, 17-phenyl-18,19,20-trinor-PGF2α-ethylamide]
solubility [1, 6]: 10770 ± 50 µg/mL (≈ 25.9 mM)
solubility [1, 7]: 10700 ± 670 µg/mL (≈ 25.7 mM)
solubility [1, 8]: 3020 µg/mL (≈ 7.26 mM)

Compound: 6^1-(3-hydroxy-propylamino)-6^1-deoxycyclomaltoheptaose
Mass Ratio Cyclodextrin:Latanoprost in Complex [2]: 14
Molar Ratio Cyclodextrin:Latanoprost in Complex [2]: 5
Maximal Solubility of Latanoprost [2, 9]: 10200 µg/mL

Compound: 6^1-(3-amino-propylamino)-6^1-deoxycyclomaltoheptaose
Mass Ratio Cyclodextrin:Latanoprost in Complex [2]: 14
Molar Ratio Cyclodextrin:Latanoprost in Complex [2]: 5
Maximal Solubility of Latanoprost [2, 9]: 9570 µg/mL

Compound: 6^1-(methylthioureido-6^1-deoxycyclomaltoheptaose
Mass Ratio Cyclodextrin:Latanoprost in Complex [2]: 106
Molar Ratio Cyclodextrin:Latanoprost in Complex [2]: 38
Maximal Solubility of Latanoprost [2, 9]: 1300 µg/mL
